From US11207308B2, “Pharmaceutical compositions for combination therapy” (PRILENIA NEUROTHERAPEUTICS LTD., priority 2012, dated 2021)
“And” between values parts separate entries of the source, which are not always exact repeats. Identical values can stand only once. Like-named read-outs stand apart in the source and are kept apart here.

How the values were obtained:
Male Sprague-Dawley rats [1] = assay: Spontaneous locomotor activity, dose-response in drug-naive rats; format: in vivo, rat; conditions: for Spontaneous locomotor activity, % of the vehicle control group mean: full hour of recording
Procedure: (§1) Rats weighed 160-180 g at the time of arrival.
(§2) The treatment groups consisted of Vehicle (saline; NaCl 0.9% v/w) and ACR16 tested at three doses (11; 33 and 100 μmol/kg).
(§3) KR104: Animals were allocated into five different treatment groups, n=4.
(§4) All compounds were injected s.c. four minutes before start of locomotor activity recording at a volume of 5 ml/kg.
During measurements of behavioural activity, a rat is put in a transparent acrylic cage with matted black floor (W×L×H, 41×41×30 cm) which in turn is placed in the activity monitor. […] Two rows are placed along the front and the side of the floor of the cage, at a 90 degree angle, and the third row is placed 10 cm above the floor to measure vertical activity. Photobeam sensors are spaced 2.5 cm apart.

striatal DOPAC [2] = assay: Striatal DOPAC tissue level (HPLC/EC), dose-response in naive rats; format: in vivo, rat; conditions: mean ± SEM, percentage of vehicle control group mean
Procedure: as §1, §2, §3, §4
(§5) A digital sonifier (Branson Digital Sonifier 250-D) was used to homogenise tissue from the striatum and limbic region. […] All samples were centrifuged at 10.000 rpm for 10 minutes at +4° C. Cortex tissue was filtered in Munktell filter paper 5.5 cm quality 1 F. Tissue eluates were analysed with respect to tissue concentrations (ng/g tissue) of the monoamine transmitter substances (Norepinephrine (NA), dopamine (DA), 5-hydroxytryptamine (5-HT)) as well as their amine metabolites (normetanephrine (NM), 3-methoxytyramine (3-MT)) and acid metabolites ([…] (DOPAC), 5-hydrocyindoleacetic acid (5-HTAA), homovanillic acid (HVA)) by HPLC separations and electrochemical detection (HPLC/EC). Stock standards (DA, NA, 5-HT, 3-MT, DOPAC, HVA, HIAA, 500 μg/ml) and internal standard (AMDA 500 μg/ml) are prepared once every three months. 5-HT and 5HIAA are dissolved in milliQ water. DA, NA, DOPAC, NM, 3-MT and HVA are dissolved in 0.01 M HCl. 5-HT, 5-HIAA, NM and HVA are kept in fridge; DA, DOPAC, NA and 3-MT are kept in freezer.
(§6) Detection potentials relative to Ag/AgCl reference are 0.45 and 0.60V. […] Detection potentials relative to Ag/AgCl reference are 0.45 and 0.65V.

striatal dopamine [3] = assay: Striatal dopamine (DA) tissue level (HPLC/EC), dose-response in naive rats; format: in vivo, rat; conditions: mean ± SEM, percentage of vehicle control group mean
Procedure: as §1, §2, §3, §4, §5, §6

Arc mRNA [4] = assay: Arc gene expression (Arc mRNA, real-time PCR) in striatum and frontal cortex, dose-response studies; format: in vivo, rat
Procedure: as §1, §4
Reference genes are HPRT and cyclophilin.
Correct PCR products are confirmed by agarose gel electroforesis (2%) PCR products are purified with PCR purification kit from Qiagen (Valencia, Calif., USA). All genes are sequenced at MWG, Germany.
For the data shown in FIG. 6, the reverse transcription and PCR were performed as follows:
Reversed transcription is performed by using a ThermoScript kit (Invitrogen).
cDNA of Arc and two reference genes, hypoxanthine-guanine phosphoribosyltransferase (HPRT) and cyclophilin A, was amplified by real-time PCR in either a triplex reaction (Tetrabenazine studies) or three singleplex reactions (studies with Pridopidine and haloperidol).

Male Sprague-Dawley rats [5] = conditions: for Locomotor activity, % of Tetrabenazine control group mean: full hour of recording
Description: No brain tissue was collected from this experiment. […] Each activity monitor consists of a quadratic metal frame equipped with photobeam sensors. […] Each activity monitor is equipped with three rows of infrared photobeam sensors, each row consisting of 16 sensors. […] Photobeam sensors are spaced 2.5 cm apart. Each activity monitor is fitted in an identical sound and light attenuating box (W×L×H—55×55×45) containing a weak house light and a fan. The computer software is written using object oriented programming (LabVIEW™, National instruments, Austin, Tex., USA). Behavioural data from each activity monitor, representing the position (horizontal center of gravity and vertical activity) of the animal at each time, are recorded at a sampling frequency of 25 Hz and collected using a custom written LABView™ application. The data from each recording session are stored and analyzed with respect to distance travelled. Each behavioural recording session lasts 60 min, starting approximately 4 min after the injection of test compound. The results are presented as counts/60 minutes, counts/45 minutes or counts/15 minutes, in arbitrary length units. Statistical comparisons are carried out using Student's t-test against the control group.

striatal DOPAC [6] = assay: Striatal DOPAC tissue level (HPLC/EC), interaction with Tetrabenazine; conditions: percentage of Tetrabenazine control group mean
striatal dopamine [7] = assay: Striatal dopamine (DA) tissue level (HPLC/EC), interaction with Tetrabenazine; conditions: percentage of Tetrabenazine control group mean
Arc mRNA [8] = assay: Arc gene expression (Arc mRNA, real-time PCR) in striatum and frontal cortex, interaction with Tetrabenazine
[9] = 0.04 mg/kg s.c. together with Tetrabenazine 0.64 mg/kg
[10] = 0.12 mg/kg s.c. together with Tetrabenazine 0.64 mg/kg

## O=C(CCCN1CCC(O)(c2ccc(Cl)cc2)CC1)c1ccc(F)cc1 [Haloperidol]
Male Sprague-Dawley rats [1]; 0.37 mg/kg s.c.
  Spontaneous locomotor activity, % of the vehicle control group mean: about 35%
Male Sprague-Dawley rats [1]; 1.1 mg/kg s.c.
  Spontaneous locomotor activity, % of the vehicle control group mean: about 35%
Male Sprague-Dawley rats [1]; 15-60 minutes post dosing, vs vehicle control
  Spontaneous locomotor activity, period 15-60 minutes post dosing (in words): a significant effect (P<0.05) was observed for the 1.1 mg/kg dose group only
Male Sprague-Dawley rats [1]; all doses tested, s.c., 60 min recording
  Effect on spontaneous locomotor activity (in words): dose-dependent inhibitory effect on spontaneous locomotor activity
Male Sprague-Dawley rats [1]; initial 15 min of recording, vs vehicle control
  Spontaneous locomotor activity, initial 15 min (in words): significant reductions (P<0.05) were seen both for the 0.37 and 1.1 mg/kg haloperidol dose groups
Male Sprague-Dawley rats [1]; s.c., not at the lowest dose tested, 0.04 mg/kg
  Doses with statistically significant effects on spontaneous locomotor activity: ≥ 0.12 mg/kg
Striatal DOPAC [2]; 0.04 mg/kg s.c.
  DOPAC striatum, dose-response in naive rats: 171 ± 35%
Striatal DOPAC [2]; 0.12 mg/kg s.c.
  DOPAC striatum, dose-response in naive rats: 276 ± 8 %
Striatal DOPAC [2]; 0.37 mg/kg s.c.
  DOPAC striatum, dose-response in naive rats: 254 ± 17 %
Striatal DOPAC [2]; 1.1 mg/kg s.c.
  DOPAC striatum, dose-response in naive rats: 292 ± 10 %
Striatal dopamine [3]; 0.04 mg/kg s.c.
  DA striatum, dose-response in naive rats: 95 ± 5%
Striatal dopamine [3]; 0.12 mg/kg s.c.
  DA striatum, dose-response in naive rats: 78 ± 3 %
Striatal dopamine [3]; 0.37 mg/kg s.c.
  DA striatum, dose-response in naive rats: 79 ± 5 %
Striatal dopamine [3]; 1.1 mg/kg s.c.
  DA striatum, dose-response in naive rats: 81 ± 2 %
Arc mRNA [4]; 0.12 mg/kg s.c.
  Arc mRNA in the striatum, % of the vehicle control group mean: 262%
Arc mRNA [4]; 0.37 mg/kg s.c.
  Arc mRNA in the striatum, % of the vehicle control group mean: 331%
Arc mRNA [4]; 1.1 mg/kg s.c.
  Arc mRNA in the striatum, % of the vehicle control group mean: 409%
Arc mRNA [4]; dose-response, 0.12, 0.37 and 1.1 mg/kg s.c.
  Cortical Arc gene expression (in words): no significant effect
Male Sprague-Dawley rats [5]; 0.04 mg/kg s.c. combined with Tetrabenazine 0.64 mg/kg
  Locomotor activity, % of Tetrabenazine control group mean: 51%
Male Sprague-Dawley rats [5]; 0.12 mg/kg s.c. combined with Tetrabenazine 0.64 mg/kg
  Locomotor activity, % of Tetrabenazine control group mean: 41%
Male Sprague-Dawley rats [5]; 15-60 min period, combined with Tetrabenazine 0.64 mg/kg, vs Tetrabenazine control
  Locomotor activity in Tetrabenazine treated rats, 15-60 min (in words): the reduction was significant for the 0.12 mg/kg dose only
Male Sprague-Dawley rats [5]; combined with Tetrabenazine 0.64 mg/kg s.c.
  Effect on Tetrabenazine induced locomotor activity reduction (in words): further reduced locomotor activity in animals treated with Tetrabenazine
Male Sprague-Dawley rats [5]; first 15 min, combined with Tetrabenazine 0.64 mg/kg, vs Tetrabenazine control
  Locomotor activity in Tetrabenazine treated rats, 0-15 min (in words): this reducing effect was significant at both the 0.04 mg/kg (P<0.01) and the 0.12 mg/kg (P<0.05) doses
Striatal DOPAC [6]; [9]
  DOPAC striatum, interaction with Tetrabenazine: 187% and 187 ± 6 %
Striatal DOPAC [6]; [10]
  DOPAC striatum, interaction with Tetrabenazine: 218% and 218 ± 12 %
Striatal dopamine [7]; [9]
  DA striatum, interaction with Tetrabenazine: 79 ± 3 %
Striatal dopamine [7]; [10]
  DA striatum, interaction with Tetrabenazine: 87 ± 10%
Arc mRNA [8]; 0.04 mg/kg s.c. coadministered with Tetrabenazine 0.64 mg/kg
  Striatal Arc, % of the Tetrabenazine control group mean: 272%
Arc mRNA [8]; 0.12 mg/kg s.c. coadministered with Tetrabenazine 0.64 mg/kg
  Striatal Arc, % of the Tetrabenazine control group mean: 400%
Arc mRNA [8]; 0.04 and 0.12 mg/kg s.c. with Tetrabenazine 0.64 mg/kg
  Cortical Arc gene expression in rats co-treated with Tetrabenazine (in words): no significant effect
